# Measurements reported in patent US11661419B2, “Benzimidazole derivative compounds and uses thereof” (Pfizer Inc., priority 2019, dated 2023).
# Experiments:
# [1] = target: Tropomyosin receptor kinase A (TRKA, NTRK1) (Homo sapiens (Human), UniProt P04629); test: TRKA (NTRK1) enzyme Z'-LYTE assay; assay type: biochemical; details: arithmetic mean of count n; test compound 1 uM, ATP 1 mM
# Protocol: Tropomyosin Receptor Kinase a (TRKA) Activity, % Inhibition
# TRKA, also known as neurotrophic tyrosine kinase receptor type 1 (NTKR1) activity was determined by measuring the effect of a test compound on the activity against the NTRK1 enzyme using the ThermoFisher Z'-LYTE Assay fluorescence-based coupled enzyme format (www.thermofisher.com/selectscreen). […] The resulting effect value for the tested compound was compared to the assay controls to determine the % inhibition (%).
# [2] = test system: IL-2 in activated CD4+ human T-cells; test: IL-2 inhibition in supernatants from activated CD4+ human T-cells (cisbio HTRF); assay type: cell-based; details: T-cell; geometric mean of count n; CD3/CD28-expanded human CD4+ T cells stimulated with ImmunoCult, 20 to 24 hrs
# Protocol: IL-2-Inhibition Activity, IC50 (uM)
# IL-2 inhibition activity in supernatants from activated CD4+ human T-cells was determined by measuring the effect of a test compound on the activity using the cisbio HTRF™ technology.
# Human CD4+ T cells were activated with CD3/CD28 for 3 days and expanded for an additional 4-6 days (7 to 9 days total). On day 0, frozen CD4+ T cells were thawed, treated with CD3/CD28 Dynabeads, and incubated at 37° C./5% CO2. On day 3, the beads were removed, and the cells were diluted to 5×10^5 cells/cm^2, placed in G-Rex10 flask, and incubated at 37° C./5% CO2. On day 7 to day 9 the cells were removed from the G-Rex flasks, counted and diluted back to 1×10^6 cells/ml in standard tissue culture flask.
# The expanded CD4+ T-cells were centrifuged at 300×g for 10 minutes and resuspended to 0.5 million cells per ml (30,000 cells/well). 60 μl of CD4+ T cells were added per well to a 384 well plate containing 0.1 μL of varying concentrations of test compound in DMSO. The plates were incubated for 15 min at 37° C./5% CO2. 20 μl of diluted ImmunoCult™ ([…] Technologies, 1:12.5 in T cell assay media) were added to all wells of the plate (1:50 final assay concentration). The plates were incubated for an additional 20 to 24 hrs at 37° C./5% CO2. The plates were centrifuged at 300×g for 10 minutes. 16 μL of supernatant was removed and combined with 4 μl of IL-2 HTRF Abs. (cisbio kit). Plates were incubated for 3 hours at RT and read with an EnVision plate reader at 665 nm and 615 nm wavelengths.
# Chain of Tropomyosin receptor kinase A (TRKA, NTRK1) (P04629 33-796): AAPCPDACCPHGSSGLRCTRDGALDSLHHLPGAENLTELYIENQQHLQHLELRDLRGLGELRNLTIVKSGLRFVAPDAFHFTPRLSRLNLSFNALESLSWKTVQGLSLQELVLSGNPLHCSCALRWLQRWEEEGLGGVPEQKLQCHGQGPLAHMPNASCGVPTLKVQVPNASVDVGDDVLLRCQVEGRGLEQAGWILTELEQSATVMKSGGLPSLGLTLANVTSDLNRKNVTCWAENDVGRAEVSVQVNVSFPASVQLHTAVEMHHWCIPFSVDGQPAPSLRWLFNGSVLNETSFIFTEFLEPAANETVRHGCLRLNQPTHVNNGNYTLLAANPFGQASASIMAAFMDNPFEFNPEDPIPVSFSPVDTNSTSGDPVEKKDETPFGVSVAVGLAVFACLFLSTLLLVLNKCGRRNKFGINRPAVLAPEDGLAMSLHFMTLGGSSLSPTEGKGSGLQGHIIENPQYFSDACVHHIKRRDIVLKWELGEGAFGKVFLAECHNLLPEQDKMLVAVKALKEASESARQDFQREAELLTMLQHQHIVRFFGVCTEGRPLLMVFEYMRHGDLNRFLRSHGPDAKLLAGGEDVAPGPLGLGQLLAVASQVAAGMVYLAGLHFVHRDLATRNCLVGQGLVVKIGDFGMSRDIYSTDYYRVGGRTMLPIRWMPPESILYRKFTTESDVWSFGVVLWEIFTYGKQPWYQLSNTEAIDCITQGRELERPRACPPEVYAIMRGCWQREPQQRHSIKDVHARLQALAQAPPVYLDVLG
Compound,inhibition at 1 µM [1],IC50 [2]
"CCN(C(=O)[C@H](C)N1CCOCC1)c1cc2nc(-c3n[nH]c4c3C[C@@H]3C[C@]3(C)C4)[nH]c2cc1C [Example 6, (S)—N-ethyl-N-(6-methyl-2-((4aS,5aR)-5a-methyl-1,4,4a,5,5a,6-hexahydrocyclopropa[f]indazol-3-yl)-1H-benzo[d]imidazol-5-yl)-2-morpholinopropanamide]",102%,101 nM
"CN(C(=O)CC1CCOCC1)c1ccc2[nH]c(-c3n[nH]c4c3C[C@@H]3C[C@]3(C)C4)nc2c1 [Example 10, N-methyl-N-(2-((4aS,5aR)-5a-methyl-1,4,4a,5,5a,6-hexahydrocyclopropa[f]indazol-3-yl)-1H-benzo[d]imidazol-5-yl)-2-(tetrahydro-2H-pyran-4-yl)acetamide]",104%,67 nM
"C[C@@H](C(=O)N(C)c1cc2nc(-c3n[nH]c4c3C[C@@H]3C[C@]3(C)C4)[nH]c2cc1C#N)N1CCOCC1 [Example 21, (S)—N-(6-cyano-2-((4aS,5aR)-5a-methyl-1,4,4a,5,5a,6-hexahydrocyclopropa[f]indazol-3-yl)-1H-benzo[d]imidazol-5-yl)-N-methyl-2-morpholinopropanamide]",91%,98 nM
"C[C@@H](C(=O)N(C)c1cc2nc(-c3n[nH]c4c3C[C@@H]3C[C@]3(C)C4)[nH]c2c(F)c1F)N1CCOCC1 [Example 24, (S)—N-(6,7-difluoro-2-((4aS,5aR)-5a-methyl-1,4,4a,5,5a,6-hexahydrocyclopropa[f]indazol-3-yl)-1H-benzo[d]imidazol-5-yl)-N-methyl-2-morpholinopropanamide]",105%,106 nM
"CCN(C(=O)[C@H](C)N1CCOCC1)c1cc2nc(-c3n[nH]c4c3C[C@@H]3C[C@]3(C)C4)[nH]c2c(F)c1F [Example 25, (S)—N-(6,7-difluoro-2-((4aS,5aR)-5a-methyl-1,4,4a,5,5a,6-hexahydrocyclopropa[f]indazol-3-yl)-1H-benzo[d]imidazol-5-yl)-N-ethyl-2-morpholinopropanamide]",101%,101 nM
"Cc1cc2[nH]c(-c3n[nH]c4c3C[C@@H]3C[C@]3(C)C4)nc2cc1N(C)C(=O)CN1CCO[C@H](CO)C1 [Example 26, 2-((S)-2-(hydroxymethyl)morpholino)-N-methyl-N-(6-methyl-2-((4aS,5aR)-5a-methyl-1,4,4a,5,5a,6-hexahydrocyclopropa[f]indazol-3-yl)-1H-benzo[d]imidazol-5-yl)acetamide]",99%,212 nM
"Cc1cc2[nH]c(-c3n[nH]c4c3C[C@@H]3C[C@]3(C)C4)nc2cc1N(C)C(=O)CN1CCO[C@@H](C)C1 [Example 31, N-Methyl-N-(6-methyl-2-((4aS,5aR)-5a-methyl-1,4,4a,5,5a,6-hexahydrocyclopropa[f]indazol-3-yl)-1H-benzo[d]imidazol-5-yl)-2-((S)-2-methylmorpholino)acetamide]",99%,75 nM
"Cc1cc2[nH]c(-c3n[nH]c4c3C[C@@H]3C[C@]3(C)C4)nc2cc1N(C)C(=O)CN1C[C@@H](C)O[C@H](C)C1 [Example 32, 2-((2R,6R)-2,6-Dimethylmorpholino)-N-methyl-N-(6-methyl-2-((4aS,5aR)-5a-methyl-1,4,4a,5,5a,6-hexahydrocyclopropa[f]indazol-3-yl)-1H-benzo[d]imidazol-5-yl)acetamide]",99%,83 nM
"Cc1cc2[nH]c(-c3n[nH]c4c3C[C@@H]3C[C@]3(C)C4)nc2cc1N(C)C(=O)CN1CCOCC1 [Example 34, N-Methyl-N-(6-methyl-2-((4aS,5aR)-5a-methyl-1,4,4a,5,5a,6-hexahydrocyclopropa[f]indazol-3-yl)-1H-benzo[d]imidazol-5-yl)-2-morpholinoacetamide]",98%,103 nM
"C[C@@H](C(=O)N(C)c1cc(Br)c2[nH]c(-c3n[nH]c4c3C[C@@H]3C[C@]3(C)C4)nc2c1)N1CCOCC1 [Example 37, (S)—N-(7-bromo-2-((4aS,5aR)-5a-methyl-1,4,4a,5,5a,6-hexahydrocyclopropa[f]indazol-3-yl)-1H-benzo[d]imidazol-5-yl)-N-methyl-2-morpholinopropanamide]",96%,130 nM

# These reach a lower IC50 [2]. Values come first.
inhibition at 1 µM [1],IC50 [2],Compound
94%,25 nM,"C[C@@H](C(=O)N(C)c1cc(F)c2[nH]c(-c3n[nH]c4c3C[C@@H]3C[C@]3(C)C4)nc2c1)C1CCOCC1 [Example 12, (R)—N-(7-fluoro-2-((4aS,5aR)-5a-methyl-1,4,4a,5,5a,6-hexahydrocyclopropa[f]indazol-3-yl)-1H-benzo[d]imidazol-5-yl)-N-methyl-2-(tetrahydro-2H-pyran-4-yl)propanamide]"
99%,3 nM,"C[C@@H](C(=O)N(C)c1ccc2[nH]c(-c3n[nH]c4c3C[C@@H]3C(F)(F)[C@]3(C)C4)nc2c1)N1CCOCC1 [Example 13, (S)—N-(2-((4aS,5aR)-5,5-difluoro-5a-methyl-1,4,4a,5,5a,6-hexahydrocyclopropa[f]indazol-3-yl)-1H-benzo[d]imidazol-5-yl)-N-methyl-2-morpholinopropanamide]"
92%,42 nM,"C[C@@H](C(=O)N(C)c1ccc2[nH]c(-c3n[nH]c4c3C[C@@H]3C[C@]3(C)C4)nc2c1)N1CCOCC1 [Example 14, (S)—N-methyl-N-(2-((4aS,5aR)-5a-methyl-1,4,4a,5,5a,6-hexahydrocyclopropa[f]indazol-3-yl)-1H-benzo[d]imidazol-5-yl)-2-morpholinopropanamide]"
107%,42 nM,"C[C@@H](C(=O)N(C)c1cc(F)c2[nH]c(-c3n[nH]c4c3C[C@@H]3C[C@]3(C)C4)nc2c1)N1CCOCC1 [Example 15, (S)—N-(7-fluoro-2-((4aS,5aR)-5a-methyl-1,4,4a,5,5a,6-hexahydrocyclopropa[f]indazol-3-yl)-1H-benzo[d]imidazol-5-yl)-N-methyl-2-morpholinopropanamide]"
116%,65 nM,"CCN(C(=O)[C@H](C)N1CCOCC1)c1cc(F)c2[nH]c(-c3n[nH]c4c3C[C@@H]3C[C@]3(C)C4)nc2c1 [Example 16, (S)—N-ethyl-N-(7-fluoro-2-((4aS,5aR)-5a-methyl-1,4,4a,5,5a,6-hexahydrocyclopropa[f]indazol-3-yl)-1H-benzo[d]imidazol-5-yl)-2-morpholinopropanamide]"
98%,57 nM,"COc1cc2[nH]c(-c3n[nH]c4c3C[C@@H]3C[C@]3(C)C4)nc2cc1N(C)C(=O)[C@H](C)N1CCOCC1 [Example 19, (S)—N-(6-methoxy-2-((4aS,5aR)-5a-methyl-1,4,4a,5,5a,6-hexahydrocyclopropa[f]indazol-3-yl)-1H-benzo[d]imidazol-5-yl)-N-methyl-2-morpholinopropanamide]"
98%,53 nM,"C[C@@H](C(=O)N(C)c1cc2nc(-c3n[nH]c4c3C[C@@H]3C[C@]3(C)C4)[nH]c2cc1Br)N1CCOCC1 [Example 20, (S)—N-(6-bromo-2-((4aS,5aR)-5a-methyl-1,4,4a,5,5a,6-hexahydrocyclopropa[f]indazol-3-yl)-1H-benzo[d]imidazol-5-yl)-N-methyl-2-morpholinopropanamide]"
